Test results: the NIST ThermoML archive (doi:10.1016/j.jct.2004.12.004)
Numbers after ± are expanded uncertainties.

Assay: mn = molality of the nth substance listed, in mol/kg
Conditions: 350 kPa, Liquid, Extra sensitive DSC

OC[C@H]1O[C@@H](O[C@H]2[C@H](O)[C@@H](O)[C@H](O)O[C@@H]2CO)[C@H](O)[C@@H](O)[C@@H]1O [D-cellobiose] + O
apparent molar heat capacity [J/K/mol]
Conditions	m1 = 0.03222	m1 = 0.05175	m1 = 0.07986	m1 = 0.09996	m1 = 0.1501	m1 = 0.3084
278.15 K	562.9 ± 33	563 ± 21	562 ± 14	561.2 ± 12	563 ± 8.4	566.4 ± 5
283.15 K	593 ± 33	592.8 ± 21	591.5 ± 14	590.9 ± 12	592 ± 8.4	594.5 ± 5
288.15 K	619.4 ± 33	618.8 ± 21	617.3 ± 14	616.9 ± 12	617.5 ± 8.5	619.6 ± 5.1
293.15 K	641.7 ± 33	641.1 ± 21	639.4 ± 14	639.2 ± 12	639.5 ± 8.6	641.1 ± 5.2
298.15 K	661.3 ± 33	660.7 ± 21	658.6 ± 14	658.8 ± 12	658.7 ± 8.6	660.1 ± 5.2
303.15 K	678.3 ± 33	677.8 ± 21	675.4 ± 15	676.2 ± 12	675.7 ± 8.7	676.9 ± 5.3
308.15 K	693.2 ± 33	692.9 ± 21	690.6 ± 15	691.5 ± 12	690.9 ± 8.7	691.8 ± 5.3
313.15 K	706.5 ± 33	706.5 ± 22	704.1 ± 15	705 ± 12	704.3 ± 8.8	705.1 ± 5.4
318.15 K	718.8 ± 33	718.9 ± 22	716.6 ± 15	717.5 ± 12	716.7 ± 8.8	717.3 ± 5.4
323.15 K	730 ± 33	730.1 ± 22	728 ± 15	728.9 ± 12	728.1 ± 8.9	728.5 ± 5.4
328.15 K	740.4 ± 33	740.7 ± 22	738.6 ± 15	739.5 ± 12	738.7 ± 8.9	739 ± 5.5
333.15 K	750.3 ± 33	750.6 ± 22	748.6 ± 15	749.5 ± 12	748.7 ± 8.9	748.9 ± 5.5
338.15 K	759.6 ± 33	759.9 ± 22	758 ± 15	758.9 ± 12	758.1 ± 8.9	758.3 ± 5.5
343.15 K	768.2 ± 33	768.6 ± 22	766.7 ± 15	767.6 ± 12	766.7 ± 9	766.9 ± 5.6
348.15 K	776.4 ± 33	776.6 ± 22	774.8 ± 15	775.8 ± 12	774.9 ± 9	775 ± 5.6
353.15 K	783.8 ± 33	784.2 ± 22	782.5 ± 15	783.5 ± 12	782.6 ± 9	782.7 ± 5.6
358.15 K	791.1 ± 33	791.5 ± 22	789.8 ± 15	790.8 ± 12	789.9 ± 9	789.9 ± 5.6
363.15 K	797.8 ± 33	798.3 ± 22	796.7 ± 15	797.8 ± 12	796.8 ± 9.1	796.8 ± 5.6
368.15 K	803.8 ± 34	804.6 ± 22	803 ± 15	804.1 ± 12	803.1 ± 9.1	803.1 ± 5.7
373.15 K	809.8 ± 34	810.7 ± 22	809 ± 15	810.1 ± 12	809.2 ± 9.1	809.1 ± 5.7
378.15 K	815 ± 34	816.2 ± 22	814.6 ± 15	815.8 ± 12	814.7 ± 9.1	814.7 ± 5.7
383.15 K	819.8 ± 34	821.3 ± 22	819.7 ± 15	821.4 ± 12	820 ± 9.1	819.9 ± 5.7
388.15 K	823 ± 34	825.3 ± 22	824.1 ± 15	827.6 ± 12	824.9 ± 9.1	824.8 ± 5.7
393.15 K	826.1 ± 34	828.7 ± 22	827.9 ± 15	833 ± 12	829.1 ± 9.2	829.2 ± 5.7
